Patent publication US20210186905A1, “ENHANCING T-CELL FUNCTION AND TREATING A T-CELL DYSFUNCTIONAL DISORDER WITH A COMBINATION OF AN LSD INHIBITOR AND A PD-1 BINDING ANTAGONIST” (EpiAxis Therapeutic Pty Ltd, priority 2017, published 2021)
Counter-ions that a name gives are not always drawn.

What was measured:
CD133, ALDH1A and ABCB5 = experiment: Immunofluorescence of cancer cells from primary tumor micro-environment, chemo-resistant stem-like signature panel; assay type: in vivo, mouse; settings: cancer cells from primary TME; % change relative to vehicle control
Method: FIG. 2 is a graphical and photographic representation showing the efficacy of dual phenelzine sulfate (phenelzine) and anti-PD1 antibody (PD1) therapy on circulating tumor cells (CTCs) and cancer stem cells (CSC) as well as tumor burden. A. Statistics of tumor volumes on day 15 post-treatment. A Mann-Whitney non-parametric t-test was used to compare control vs other groups (*p<0.02, **p<0.008). Group A=Control, Group C: PD1 (10 mg/kg), Group D: Phenelzine (40 mg/kg), Group F: PD1+Phenelzine. Illustration of the treatment protocol is also shown. […] Representative images for each dataset are shown. […] C. […] (a) Representative images for each dataset are shown. (b) Graph represents the TCFI values for CD133 TNFI for ALDH1A and TFI for ABCB5 measured using ImageJ to select the nucleus/cytoplasm minus background (n>20 individual cells, Group A=Control, Group C: PD1 (10 mg/kg), Group D: Phenelzine (40 mg/kg), Group F: PD1+Phenelzine).
FIG. 11 is a photographic and graphical representation showing triple therapy efficacy on CTC/CSC and tumor burden. A. Statistics of tumor volumes on day 15 post-treatment. […] (b) Graph represents the TCFI values for CD133 TNFI for ALDH1A and TFI for ABCB5 measured using ImageJ to select the nucleus/cytoplasm minus background (n>20 individual cells, Group A=Control, Group B: Abraxane (30 mg/kg), Group C: anti-PD1 (10 mg/kg), Group D: Phenelzine (40 mg/kg), Group E: Abraxane+PD1, Group F: PD1+Phenelzine, Group G: Abraxane+Phenelzine, Group H: Triple Therapy).
Next, the cancer cells were assessed for expression of a chemo-resistant, stem-like biomarker signature biomarker panel (CD133, ALDH1A and ABCB5).
A total of 2×10^5 cells were injected per mouse into mammary gland in 50 μL of phosphate buffered saline (PBS). […] Tumors were measured using calipers and the tumor volumes (mm3) were calculated using the formula (length×width2)/2. ? arvested cells from primary tumors where then cytospun ? -treated with poly-1-lysine and fixed then stored in PBS for IFA Microscopy Analysis. […]

EOMES, TBET and Ki67 = experiment: Immunofluorescence of T-cell exhaustion signature in CD8+ T-cells isolated from TME; assay type: in vivo, mouse; settings: % change relative to control
Method: FIG. 5 is a graphical representation showing that dual epigenetic-immunotherapy re-educates and re-programs the T-cell repertoire. A. Cells stimulated with PMA/ionomycin for 4 hours in the presence of Brefeldin A. Cells were surfaced stained with CD45, CD3, CD4, CD8, CD44, CD62L (for naïve, effector and central memory), CD25 and FoxP3 (for Tregs) and analyzed via Flow cytometry. A Mann-Whitney non-parametric t-test was used to compare control vs other groups (*p<0.05, n=2-5). […] Representative images for each dataset are shown. TNFI values for EOMES, TBET and Ki67 measured using Image) to select the nucleus minus background. Graphs represent the % change of expression relative to control group for CD8^+ T-cells. (n>20 individual cells, Group A=Control, Group C: PD1 (10 mg/kg), Group D: Phenelzine (40 mg/kg), Group F: PD1+Phenelzine). C. Cells stimulated with PMA/ionomycin for 4 hours in the presence of Brefeldin A. Cell were surfaced stained with CD45, CD3, CD4, CD8 and intracellular staining of IFN-γ, IL-2 and TNF-α in the presence of Brefeldin A and analyzed via flow cytometry. A Mann-Whitney non-parametric t-test was used to compare control vs other groups (*p<0.05, **p<0.008; n=2-5). […] Representative images for each dataset are shown. TNFI values for TNFα and IFNγ measured using ImageJ to select the nucleus minus background. Graphs represent the % change of expression relative to control group for CD8^+ T-cells. […]
A total of 2×10^5 cells were injected per mouse into mammary gland in 50 μL of phosphate buffered saline (PBS). […] Tumors were measured using calipers and the tumor volumes (mm3) were calculated using the formula (length×width2)/2. ? arvested cells from primary tumors where then cytospun ? -treated with poly-1-lysine and fixed then stored in PBS for IFA Microscopy Analysis. […] Digital images were analysed using ImageJ software (ImageJ, NIH, Bethesda, Md., USA) to determine the either the Total Nuclear Fluorescent Intensity (TNFI), the Total Cytoplasmic Fluorescent Intensity (TCFI) or total Fluorescent Intensity (TFI).

SMILES: NNCCc1ccccc1 (racemic) [phenelzine sulfate, (±)-2-phenylethylhydrazine]
- expression of ABCB5 (CD133, ALDH1A and ABCB5): strongly inhibited
- expression of ALDH1A (CD133, ALDH1A and ABCB5): did not significantly affect
- expression of CD133 (CD133, ALDH1A and ABCB5): did not significantly affect
- EOMES expression (EOMES, TBET and Ki67): strongly inhibit
- Ki67 expression (EOMES, TBET and Ki67): more strongly
- TBET expression (EOMES, TBET and Ki67): more strongly
